The numbers were not newly measured in patent US20200178572A1 (priority 2017, published 2020), which cites them from elsewhere.

The conditions of the data set: in vivo.

Consider `CC1=CC[C@H]2C[C@@H]1C2(C)C` [α-Pinene, (1S,5S)-2,6,6-Trimethylbicyclo[3.1.1]hept-2-ene], for which the human pulmonary uptake is reported as 60%.
